Measured values reported in patent US10329262B2, “Quinazolinone antibiotics” (priority 2013, dated 2019).
In brackets after ≈: the same amount, converted by molar mass. Where two headings read alike, the source gives them in different places.

Key:
S. aureus VRS2 = assay: MIC, CLSI broth microdilution, S. aureus VRS2; assay type: cell-based, Staphylococcus aureus; details: for MIC: Table 2, S. aureus VRS2
Procedure: (§1) MICs were evaluated following the CLSI microdilution method in BBL™ Mueller-Hinton II broth (Wikler et al., Clinical Laboratory Standards Institute Document M7-A7, 29 (2009)). Briefly, two-fold serial dilutions of compound were prepared in triplicate in 96-well plates and inoculated with 5×10^5 cfu/mL of the bacterial suspension. Plates were incubated at 37° C. for 16-20 hours.

S. aureus NRS100 = assay: MIC, CLSI broth microdilution, S. aureus NRS100; assay type: cell-based, Staphylococcus aureus; details: for MIC: Table 2, S. aureus NRS100
Procedure: as §1

S. aureus NRS123 = assay: MIC, broth microdilution, S. aureus NRS123; assay type: cell-based; details: Staphylococcus aureus; Table 2, S. aureus NRS123; read-out: MIC
Procedure: as §1

S. aureus NRS119 = assay: MIC, CLSI broth microdilution, S. aureus NRS119; assay type: cell-based, Staphylococcus aureus; details: for MIC: Table 2, S. aureus NRS119
Procedure: as §1

S. aureus NRS70 = assay: MIC, broth microdilution, S. aureus NRS70; assay type: cell-based, Staphylococcus aureus
Procedure: as §1

S. aureus VRS1 = assay: MIC, CLSI broth microdilution, S. aureus VRS1; assay type: cell-based, Staphylococcus aureus; details: for MIC: Table 2, S. aureus VRS1
Procedure: as §1

S. aureus NRS120 = assay: MIC, CLSI broth microdilution, S. aureus NRS120; assay type: cell-based, Staphylococcus aureus; details: for MIC: Table 2, S. aureus NRS120
Procedure: as §1

[1] = system: S. aureus ATCC 29213 (MSSA); assay: MIC, CLSI broth microdilution, S. aureus ATCC 29213; assay type: cell-based, Staphylococcus aureus; details: for MIC (w/ BSA): S. aureus ATCC 29213, in the presence of bovine serum albumin; for MIC: S. aureus strain ATCC 29213 (MSSA)
Procedure: as §1

[2] = system: S. epidermidis ATCC 35547; assay: MIC, CLSI broth microdilution, S. epidermidis ATCC 35547; assay type: cell-based; details: for MIC: Table 2, S. epidermidis ATCC 35547
Procedure: as §1

[3] = system: S. haemolyticus ATCC 29970; assay: MIC, CLSI broth microdilution, S. haemolyticus ATCC 29970; assay type: cell-based; details: for MIC: Table 2, S. haemolyticus ATCC 29970
Procedure: as §1

S. aureus NRS128 = assay: MIC, CLSI broth microdilution, S. aureus NRS128; assay type: cell-based, Staphylococcus aureus; details: Table 2.1, S. aureus NRS128
Procedure: as §1

Pharmacokinetics in mice = details: Table 1, ICR female mice, single dose iv
Procedure: We conducted first fast PK studies (n=2 mice per time point, 5 time points) dosing the compounds iv, followed by full PK studies for selected compounds (n=3 mice per time point, 10-12 time points per route of administration, iv and po).
A single dose of compound 2 was administered to mice (n=3 per time point) by tail vein injection or by oral gavage at 10 mg/kg. Blood was collected by cardiac puncture in heparinized syringes at 2, 5, 20, and 40 min and at 1, 2, 3, 4, 8, 18, and 24 h after iv dosing and at 0.5, 1, 2, 3, 4, 6, 9, 24, and 30 h after po dosing. Blood was centrifuged to obtain plasma. A 50-μL aliquot of plasma was mixed with 100 μL of acetonitrile containing internal standard (5 μM final concentration), followed by centrifugation at 20,000 g for 15 min. The supernatant was analyzed by reverse-phase UPLC. PK parameters were calculated as described in the Plasma protein binding and Pharmacokinetics sections below (see also Gooyit et al. J. Med. Chem. 54, 6676-6690 (2011)).
The area under the concentration-time curve up to the last quantifiable sampling time (AUC0-last) was calculated by the trapezoidal rule. AUC0-∞ was calculated as AUC0-last+(Clast/k), where Clast is the concentration at the last quantifiable sampling time and k is the elimination rate constant. The concentration at time=0 (C0) was estimated from the first sampling times by back-extrapolation using log-linear regression analysis. Half-lives (t1/2α and t1/2β) were estimated from the linear portion of the initial or terminal concentration-time data by linear regression, where the slope of the line was the rate constant k and t1/2α=ln 2/k. Volume of distribution (Vd) was calculated as the dose divided by the initial concentration (C0). Clearance (CL) was calculated from the dose divided by AUC0-∞. Oral bioavailability (F) was calculated by dividing the AUCpo by the AUCiv, as equivalent iv and po doses were administered.

MRSA ATCC 27660 = assay: Mouse peritonitis model of MRSA infection; assay type: in vivo, mice; details: 5 mg/kg iv at 30 min and 4.5 hr after infection, n = 6, 48 h
Procedure: We evaluated several compounds in in vivo mouse infection models, as well as in pharmacokinetic (PK) studies in mice (Table 1). The in vivo efficacy was determined using the rapid mouse peritonitis model of infection, in which the end point is death or survival in 48 hours. We initially dosed the compounds intravenously (iv) at a single dose level. If the compound has good in vivo efficacy after iv administration, we then evaluated efficacy at five dose levels. We also investigated in vivo efficacy after oral (po) administration.
Groups (n=6/group) of mice were infected with MRSA (0.5 mL of ATCC 27660 at a final concentration of 5×10^7 CFU/mL in 5% porcine mucin) intraperitoneally (ip). Following infection, mice were given iv doses by tail vein injection of compound 2, vancomycin (5 mg/kg, positive control), or vehicle at 30 min and 4.5 h after infection. The number of surviving mice was monitored for 48 h. The negative control (vehicle) typically results in the death of all mice. Quinazolinone 2 was dissolved in saline, sterile-filtered, and administered at doses of 2.5, 5, 7.5, 10, 20, and 30 mg/kg. The ED50 value was calculated using GraphPad prism 5.

S. aureus (ATCC 29213) = assay: Macromolecular synthesis assays; assay type: cell-based, Staphylococcus aureus; details: Staphylococcus aureus, ATCC29213; positive control, 16 μg/mL; read-out: Inhibition of cell-wall (peptidoglycan) biosynthesis
Source text: Mechanism of Action of the Quinazolinones. The mode of action of 2 was investigated by macromolecular synthesis assays in S. aureus in the logarithmic phase, which monitor incorporation of radiolabeled precursors [methyl-^3H]-thymidine, [5-^3H]-uridine, L-[4,5-^3H]-leucine, or D-[2,3-^3H]-alanine into DNA, RNA, protein, or cell wall (peptidoglycan), respectively. Inhibition of radiolabeled precursor incorporation by 2 at a concentration of half the MIC was compared with those of known inhibitors of each pathway (ciprofloxacin, rifampicin, tetracycline, and fosfomycin, respectively).
The mode of action of 2 was investigated by macromolecular synthesis assays in S. aureus in the logarithmic phase (Miller, A A et al. Antimicrob. Agents Chemother. 52, 2806-12 (2008)), which monitor incorporation of radiolabeled precursors [methyl-^3H]-thymidine, [5-^3H]-uridine, L-[4,5-^3H]-leucine, or D-[2,3-^3H]-alanine into DNA, RNA, protein, or cell wall (peptidoglycan), respectively.
The incorporation of radiolabeled precursors—[methyl-^3H]-thymidine, [5-^3H]-uridine, L-[4,5-^3H]-leucine, or D-[2,3-^3H]-alanine—into DNA, RNA, protein, or peptidoglycan, respectively, in logarithmically growing S. aureus (ATCC 29213) was measured using a previously published method, with aliquots taken every 20 min over a 120-min incubation period (Wilson et al., Antimicrob. Agents Chemother. 39, 1925-33 (1995)).

[4] = Staphylococcus aureus, read-out: MIC

CC(=O)NC[C@H]1CN(c2ccc(N3CCOCC3)c(F)c2)C(=O)O1 [linezolid]
MIC (S. aureus VRS2; [4]): 1 µg/mL (≈ 2.96 µM)
In vitro AB activity (MIC) (S. aureus VRS2; Table 2.1, S. aureus VRS2): 2 µg/mL
MIC (S. aureus NRS100; [4]): 2 µg/mL (≈ 5.93 µM)
In vitro AB activity (MIC) (S. aureus NRS100; Table 2.1, S. aureus NRS100): 2 µg/mL
MIC (S. aureus NRS123): 2 µg/mL (≈ 5.93 µM)
MIC (S. aureus NRS119; [4]): 64 µg/mL (≈ 190 µM)
In vitro AB activity (MIC) (S. aureus NRS119; Table 2.1, S. aureus NRS119): 32 µg/mL
MIC (S. aureus NRS70; Staphylococcus aureus, Table 2, S. aureus NRS70, read-out: MIC): 1 µg/mL (≈ 2.96 µM)
In vitro AB activity (MIC) (S. aureus NRS70; Table 2.1, S. aureus NRS70): 1 µg/mL
MIC (S. aureus VRS1; [4]): 2 µg/mL (≈ 5.93 µM)
In vitro AB activity (MIC) (S. aureus VRS1; Table 2.1, S. aureus VRS1): 2 µg/mL
MIC (S. aureus NRS120; [4]): 64 µg/mL (≈ 190 µM)
In vitro AB activity (MIC) (S. aureus NRS120; Table 2.1, S. aureus NRS120): 32 µg/mL
In vitro AB activity (MIC) ([1]; Table 2.1, S. aureus ATCC 29213): 4 µg/mL
MIC ([2]; Staphylococcus epidermidis, ATCC35547, read-out: MIC): 1 µg/mL (≈ 2.96 µM)
In vitro AB activity (MIC) ([2]; Table 2.1, S. epidermidis ATCC 35547): 1 µg/mL
MIC ([3]; Staphylococcus haemolyticus, ATCC29970, read-out: MIC): 1 µg/mL (≈ 2.96 µM)
In vitro AB activity (MIC) ([3]; Table 2.1, S. haemolyticus ATCC 29970): 2 µg/mL
In vitro AB activity (MIC) (S. aureus NRS128): 1 µg/mL

Cc1nc2ccccc2c(=O)o1 [Compound 3]
AUC (iv) (Pharmacokinetics in mice): AUC = 466 μg.min/mL
CL (Pharmacokinetics in mice): CL = 10.7 mL/min/kg
Vd (Pharmacokinetics in mice): Vd = 8.9 mL
MIC (w/ BSA) [1]: 4 µg/mL
MIC [1]: 0.25 µg/mL (≈ 1.55 µM)
In Vivo Efficacy (survived/total mice) (MRSA ATCC 27660): 1/6 @ 5 mg/kg

C[C@@H]1O[C@@H]1P(=O)(O)O [fosfomycin, reference compound]
inhibition at 16 µg/mL (S. aureus (ATCC 29213)): 64 ± 8%

CC(=O)Nc1cccc(-n2c(/C=C/c3ccc(C#N)cc3)nc3ccccc3c2=O)c1 [Compound 8]
MIC (S. aureus VRS2): 0.125 µg/mL (≈ 0.308 µM)
MIC (S. aureus NRS100): 1 µg/mL (≈ 2.46 µM)
MIC (S. aureus NRS119): 0.25 µg/mL (≈ 0.615 µM)
AUC (iv) (Pharmacokinetics in mice): AUC = 1187 μg.min/mL
CL (Pharmacokinetics in mice): CL = 131 mL/min/kg
Vd (Pharmacokinetics in mice): Vd = 107 mL
MIC (S. aureus VRS1): 4 µg/mL (≈ 9.84 µM)
MIC (S. aureus NRS120): 0.25 µg/mL (≈ 0.615 µM)
MIC (w/ BSA) [1]: 2 µg/mL
MIC [1]: 0.25 µg/mL (≈ 0.615 µM)
MIC [2]: 0.06 µg/mL (≈ 0.148 µM)
MIC [3]: 0.25 µg/mL (≈ 0.615 µM)
In Vivo Efficacy (survived/total mice) (MRSA ATCC 27660): 1/6 @ 5 mg/kg
